Results from patent US11865176B2, “Compositions and methods of modulating anti-tumor immunity” (Dana-Farber Cancer Institute, Inc., priority 2016, dated 2024).
Values joined by “and” are separate entries in the source; they are usually repeats but may differ in a detail not shown here. Equal entries are not always repeated. Structures can show the parent of a compound that is named as a salt.

Tested on: PD-1-overexpressing Jurkat cells
Assay: Small molecule screen: IL2 secretion (AlphaLISA) from stimulated PD-1-overexpressing Jurkat cells
Type: cell-based, human
Conditions: 3.3 μM compound; for Zscore_1 / Zscore_2: IL2 level, α-CD3/α-CD28/α-PD-1 beads; for Zscore_1: replicate 1; for Zscore_2: replicate 2; for Zscore_AVG: average of replicate Z scores
Description: PD-1-overexpressing Jurkat cells were plated at a concentration of 100,000 cells/well in a total volume of 80 μl. […] Dynabeads conjugated to α-CD3, α-CD28, and α-PD-1 antibodies were added in 20 for a final assay volume of 100 with a final compound concentration of 3.3 μM and an 8:1 bead:cell ratio. Beads were conjugated to α-CD3/α-CD28/control IgG and added to wells containing DMSO-treated cells as a positive control, while beads conjugated to α-CD3/α-CD28/α-PD1 were added to wells containing DMSO-treated cells as a negative control. Supernatants from each well were analyzed for IL2 levels by AlphaLISA (Perkin Elmers) according to the manufacturer's protocol. Average and standard deviation values were calculated from the PD-1 controls (DMSO-treated cells stimulated with α-CD3/α-CD28/α-PD-1 beads); hits were defined as compounds scoring at least 3 standard deviations from the mean of the controls.
In addition to known negative regulators of IL-2 production (e.g. glycogen synthase kinase-3α/β (GSK3α/β) (24,25)), this screen identified cyclin-dependent kinases 4 and 6 inhibitors (CDK4/6i) as top hits (Table 1).

Compound | Zscore_1 | Zscore_2 | Zscore_AVG
O=[N+]([O-])/C=C/c1ccc2c(c1)OCO2 [Syk Inhibitor III] | −0.8894 | 0.1912 | −0.3491
O=C1Nc2ccc(Cl)cc2/C1=C/c1cc(Cl)c(O)c(Cl)c1 [PKR Inhibitor, Negative Control] | −1.427 | −0.4334 | −0.9301
c1ccc(-c2[nH]ncc2-c2ccnc3ccccc23)nc1 [TGF-b RI Kinase Inhibitor] | −0.7181 | −1.933 | −1.326
CC[C@@H](CO)Nc1nc(NCc2ccccc2)c2ncn(C(C)C)c2n1 (single isomer, unassigned) [Roscovitine, (S)-Isomer] | −2.928 | −1.279 | −2.103
COc1cc(SC)ccc1C(=O)N1CCC(Cc2ccccc2)CC1 [p38 MAP Kinase Inhibitor VI, JX401] | −0.3753 | −0.9241 | −0.6497
COc1ccc(CNc2nc(N(CCO)CCO)nc3c2ncn3C(C)C)cc1 [Cdk2 Inhibitor III] | −2.414 | −4.745 | −3.58
Cc1cc(Nc2nc(-c3ccccc3)nc3ccccc23)n[nH]1 [GSK-3 Inhibitor XIII] | −2.535 | −3.925 | −3.23
O=C(CCCc1ccc(-c2ccccc2F)cc1)Nc1ccc(O)cc1 [MK2a Inhibitor] | −1.455 | −2.305 | −1.88
O=C1c2ccccc2-[n+]2ccc3c([nH]c4ccccc43)c21 [Fascaplysin, synthetic] | −6.289 | −8.222 | −7.256
O=C(Nc1cccc(Nc2nccc(Nc3cccc(C(F)(F)F)c3)n2)c1)C1CC1 [Aurora Kinase Inhibitor III] | 7.108 and 2.737 | 6.482 and −0.8139 | 6.795 and 0.9614
NCCNc1ncc(C(N)=O)c(Nc2cccc(C(F)(F)F)c2)n1 [Syk Inhibitor II] | −0.7866 | −0.6851 | −0.7358
CCN1/C(=C/C(C)=O)Sc2ccc(OC)cc21 [Cdc2-Like Kinase Inhibitor, TG003] | −1.367 | −2.423 | −1.895
O=C1Nc2ccc3ncsc3c2/C1=C/c1cnc[nH]1 [PKR Inhibitor] | −7.658 | −8.086 | −7.872
CC(C)[C@H](CO)Nc1nc(Nc2cc(N)cc(Cl)c2)c2ncn(C(C)C)c2n1 [Aminopurvalanol A] | −3.687 | −3.638 | −3.662
CN1C(=O)C(Cc2c[nH]c3ccccc23)NC1=S (stereo not drawn) [Necrostatin-1] | −1.566 | 1.447 | −0.05934
COc1cc2ncc(-c3ccccc3)nc2cc1OC [AG 1296] | 0.5275 | −0.8562 | −0.1643
CC(C)n1cnc2c(Nc3cccc(Cl)c3)nc(NCCO)nc21 [Compound 52] | −1.412 | −0.2643 | −0.8381
CNCCNS(=O)(=O)c1cccc2cnccc12.Cl.Cl [H-8, Dihydrochloride] | −1.014 | −2.509 | −1.761
COc1cc2ncnc(Nc3ccc(O)c(Br)c3)c2cc1OC [JAK3 Inhibitor II] | −0.7783 | −1.36 | −1.069
c1ccc2c(-c3ccncc3)c[nH]c2c1 [Rho Kinase Inhibitor III, Rockout] | −0.1806 | −2.59 | −1.385
CC[C@H](CO)Nc1nc(NCc2ccc(-c3ccccn3)cc2)c2ncn(C(C)C)c2n1 (single isomer, unassigned) [CR8, (R)-Isomer] | −9.662 | −6.961 | −8.311
CC[C@H](CO)Nc1nc(NCc2ccccc2O)c2ncn(C(C)C)c2n1 [Olomoucine II] | 0.3445 | 2.103 | 1.224
COc1cc2ncnc(Nc3cccc(O)c3)c2cc1OC [WHI-P180, Hydrochloride] | −4.627 | −4.112 | −4.37

Compound | Zscore_1 | Zscore_2 | Zscore_AVG
COc1ccc(S(=O)(=O)Nc2ccccc2CN(C)C/C=C/c2ccc(Cl)cc2)cc1 [KN-92] | 0.5356 | 0.3912 | 0.4634
COc1ccc2c(c1)c(C1=C(c3c[nH]c4ccccc34)C(=O)NC1=O)cn2CCCN(C)C [G? 6983] | −9.778 | −9.075 | −9.426
O=C1NC(=O)C(c2c[nH]c3ccccc23)=C1c1c[nH]c2ccccc12 [Bisindolylmaleimide IV] | −2.073 | −2.336 | −2.205
Cc1cccc(-c2[nH]c(C(C)(C)C)nc2-c2ccc3c(c2)OCO3)n1 [TGF-b RI Inhibitor III] | −0.4096 | −0.6585 | −0.5341
Oc1cccc(-c2nc(N3CCOCC3)c3oc4ncccc4c3n2)c1 [PI-103] | −0.718 | 0.8433 | 0.06265
Cl.Cl.N=C(N)NCCNS(=O)(=O)c1cccc2cnccc12 [HA 1004, Dihydrochloride] | 0.08457 | −0.6711 | −0.2933
N#Cc1cnc2cnc(NCc3cccnc3)cc2c1Nc1ccc(F)c(Cl)c1 [Tpl2 Kinase Inhibitor] | −2.9 | −5.972 | −4.436
Nc1ncnc2c1c(-c1ccc(Oc3ccccc3)cc1)cn2C1CCCC1 [Lck Inhibitor] | −8.467 | −8.924 | −8.695
Oc1ccc2ccccc2c1SSc1c(O)ccc2ccccc12 [p21-Activated Kinase Inhibitor III, IPA-3] | −0.461 | 0.6426 | 0.09079
CC(C)(C)c1nc2c3cc[nH]c(=O)c3c3cc(F)ccc3c2[nH]1 [JAK Inhibitor I] | −4.034 | −6.012 | −5.023
CN[C@@H]1C[C@H]2O[C@@](C)([C@@H]1OC)n1c3ccccc3c3c4c(c5c6ccccc6n2c5c31)C(=O)NC4 [Staurosporine, Streptomyces sp.] | −6.893 and −7.431 | −9.439 and −9.651 | −8.166 and −8.541
CC(=O)O[C@@H]1[C@@H](OC(C)=O)[C@@H](O)[C@H](Oc2c(-c3ccc(O)cc3)oc3cc(O)cc(O)c3c2=O)O[C@H]1C [RSK Inhibitor, SL0101] | 1.689 | −0.3488 | 0.67
CCCOc1ccc(/C=C2/SC(=O)NC2=O)cc1 [PIM1/2 Kinase Inhibitor VI] | −0.7695 | −1.561 | −1.165
Isogranulatinude | 1.39 | 4.572 | 2.981
CCN(CC)C(=O)c1ccc(Nc2nc(OCC3CCCCC3)c3[nH]cnc3n2)cc1 [Cdk2 Inhibitor IV, NU6140] | −4.843 | −6.155 | −5.499
O=c1[nH]c2ccccc2n1C1CCN(Cc2ccc(-c3nc4cc5nc[nH]c5cc4nc3-c3ccccc3)cc2)CC1 [Akt Inhibitor VIII, Isozyme- Selective, Akti-1/2] | 1.673 | 1.052 | 1.362
NC(=O)c1ccc(-c2nc(-c3ccc4c(c3)OCCO4)c(-c3ccccn3)[nH]2)cc1 [Casein Kinase I Inhibitor, D4476] | −1.219 | 1.296 | 0.03862
O=C1NC(=O)c2c1c1c3ccccc3[nH]c1c1[nH]c3cc(Br)ccc3c21 [Cdk4 Inhibitor] | 7.007 | 16.07 | 11.54
Cn1nc2c3c(cccc31)C(=O)c1ccccc1-2 [JNK Inhibitor, Negative Control] | 0.1027 | 1.046 | 0.5746
CCOC(=O)c1c(C)[nH]c(/C=C2\C(=O)Nc3ccccc32)c1C [VEGF Receptor 2 Kinase Inhibitor I] | −0.8038 | −1.721 | −1.262
Nc1ncnc2n[nH]c(Nc3ccc(F)cc3)c12 [MNK1 Inhibitor] | −2.022 | −0.3911 | −1.206
CO[C@H]1C[C@@H]2CC[C@@H](C)[C@@](O)(O2)C(=O)C(=O)N2CCCC[C@H]2C(=O)O[C@H]([C@H](C)C[C@@H]2CC[C@@H](O)[C@H](OC)C2)CC(=O)[C@H](C)/C=C(\C)[C@@H](O)[C@@H](OC)C(=O)[C@H](C)C[C@H](C)/C=C/C=C/C=C/1C [Rapamycin] | −1.883 | −3.367 | −2.625
CC(=O)c1ccc(N2CCOCC2)cc1O [DNA-PK Inhibitor III] | 5.18 | 6.23 | 5.705
